# Results: ChEMBL document CHEMBL5346934 (J Med Chem, 2023)
# Key:
# Vaccinia virus [1] = experiment: Antiviral activity against Vaccinia virus infected in African green monkey Vero cells assessed as reduction virus induced cytopathic effect incubated for 24 hrs by MTT assay; type: functional, organism-based; settings: Orthopoxvirus vaccinia
# Vaccinia virus [2] = experiment: Antiviral activity against Vaccinia virus Copenhagen infected in African green monkey Vero cells measured after 4 days by colorimetric assay; type: functional, organism-based; settings: Orthopoxvirus vaccinia, 96 h
# Cowpox virus = experiment: Antiviral activity against Cowpox virus Grishak infected in African green monkey Vero cells measured after 4 days by colorimetric assay; type: functional, organism-based; settings: 96 h
# Ectromelia virus = experiment: Antiviral activity against ectromelia virus K-1 infected in Vero cells measured after 4 days by colorimetric assay; type: functional, organism-based; settings: K-1, Vero, 96 h
# HEL = experiment: Cytotoxicity against human HEL cells assessed as reduction in cell growth; type: functional
# Vaccinia virus [3] = experiment: Antiviral activity against Vaccinia virus infected in human HEL cells; type: functional, organism-based; settings: Orthopoxvirus vaccinia
# Vaccinia virus [4] = experiment: Antiviral activity against Vaccinia virus infected in African green monkey CV-1 cells assessed as reduction in virus-induced cytopathic effect incubated for 5 days by colorimetric analysis; type: functional, organism-based; settings: Orthopoxvirus vaccinia, CV-1, 120 h
# Vaccinia virus [5] = experiment: Antiviral activity against Vaccinia virus Copenhagen infected in human HFF cells assessed as assessed as reduction in virus-induced cytopathic effect incubated for 7 days by microscopic analysis; type: functional, organism-based; settings: Orthopoxvirus vaccinia, 168 h
# Vaccinia virus [6] = experiment: Antiviral activity against Vaccinia virus VG9 infected in African green monkey BSC-1 cells; type: functional, organism-based, Orthopoxvirus vaccinia
# Vaccinia virus [7] = experiment: Antiviral activity against Vaccinia virus infected in African green monkey BSC-1 cells; type: functional, organism-based, Orthopoxvirus vaccinia
# [8] = Orthopoxvirus vaccinia, VG9, BSC-1
compound,measurement,setting,value
CCCCCCCCCCCCCCCCCCOCCOP(=O)(O)CO[C@H](CO)Cn1ccc(N)nc1=O,EC50,Vaccinia virus [1],200 nM
CC1(C)[C@@H]2CC[C@@]1(C)[C@@H](NC(=O)C1CCCCC1)C2,IC50,Vaccinia virus [2],1400 nM
same,IC50,Cowpox virus,14400 nM
same,IC50,Ectromelia virus,6200 nM
O=C1N(Nc2ccc([N+](=O)[O-])cc2)C(=O)C23C4C=CC5C4C4C(C=CC42)C153,CC50,HEL,> 100000 nM
same,IC50,Vaccinia virus [3],3000 nM
CC1(C)[C@@H]2CC=C(C(=O)NC34CC5CC(CC(C5)C3)C4)[C@H]1C2,IC50,Vaccinia virus [2],2500 nM
same,IC50,Cowpox virus,7200 nM
same,IC50,Ectromelia virus,1700 nM
O=C(NN1C(=O)C2C3C=CC(C4CC34)C2C1=O)c1cc(Br)cc(Br)c1O (stereo not drawn),IC50,Vaccinia virus [2],1.05 µg/mL
O=C1N(Nc2ccc(Cl)c(Cl)c2)C(=O)C23C4C=CC5C4C4C(C=CC42)C153,CC50,HEL,> 100000 nM
same,IC50,Vaccinia virus [3],480 nM
O=C1N(Nc2ccc(Br)cc2)C(=O)C23C4C=CC5C4C4C(C=CC42)C153,CC50,HEL,> 100000 nM
same,IC50,Vaccinia virus [3],7300 nM
CC1(C)[C@@H]2CC[C@@]1(C)[C@@H](NC(=O)c1ccc(Br)cc1)C2,IC50,Vaccinia virus [2],360 nM
same,IC50,Cowpox virus,1900 nM
same,IC50,Ectromelia virus,700 nM
O=C1N(Nc2ccc(Cl)c(Br)c2)C(=O)C23C4C=CC5C4C4C(C=CC42)C153,CC50,HEL,> 100000 nM
same,IC50,Vaccinia virus [3],160 nM
O=C(NN1C(=O)C2C3C=CC(C4CC34)C2C1=O)c1cc(Cl)cc(Cl)c1 (stereo not drawn),IC50,Vaccinia virus [2],0.95 µg/mL
O=C(NN1C(=O)C2C3C=CC(C4CC34)C2C1=O)c1ccc(O)c([N+](=O)[O-])c1 (stereo not drawn),IC50,Vaccinia virus [2],0.38 µg/mL
CC1(C)[C@@H]2CC[C@@]1(C)[C@@H](NC(=O)c1ccc([N+](=O)[O-])cc1)C2,IC50,Vaccinia virus [2],30 nM
same,IC50,Cowpox virus,1400 nM
same,IC50,Ectromelia virus,410 nM
CC[C@H]1CN2CCc3cc(OC)c(OC)cc3[C@@H]2CC1C[C@H]1NCCc2cc(O)c(OC)cc21 (stereo partly drawn),EC50,Vaccinia virus [4],125 nM
CC1(C)[C@@H]2CC[C@@]1(C)[C@H](NC(=O)c1ccc([N+](=O)[O-])cc1)C2,IC50,Vaccinia virus [2],900 nM
same,IC50,Cowpox virus,18400 nM
same,IC50,Ectromelia virus,8000 nM
O=C1N(Nc2ccc(Cl)c(C(F)(F)F)c2)C(=O)C23C4C=CC5C4C4C(C=CC42)C153,CC50,HEL,> 100000 nM
same,IC50,Vaccinia virus [3],800 nM
CCOc1ccc2c(c1)[C@H]1C=CC[C@H]1[C@H](c1ccccc1Cl)N2,EC50,Vaccinia virus [5],13900 nM
CCCCCCCCCCCCCC[N+]12CC[N+](CCCC(=O)N[C@@H](Cc3c[nH]cn3)C(=O)O)(CC1)CC2,EC50,Vaccinia virus [4],400000 nM
CC1(C)[C@@H]2CC[C@@]1(C)/C(=N/NC(=O)C1CCC(F)(F)CC1)C2,IC50,Vaccinia virus [2],1800 nM
same,IC50,Cowpox virus,8300 nM
same,IC50,Ectromelia virus,7800 nM
CCCCCCCCCCOc1ccc(C(=O)NN2C(=O)C3C4C=CC(C5CC45)C3C2=O)cc1 (stereo not drawn),IC50,Vaccinia virus [2],1.7 µg/mL
CC(=O)C1=C2C=CCCN2C(=O)NC1c1cccc(F)c1 (stereo not drawn),IC50,Vaccinia virus [1],100 nM
CC1(C)[C@@H]2CC[C@@]1(C)[C@@H](NC(=O)c1ccc(C(F)(F)F)cc1)C2,IC50,Vaccinia virus [2],600 nM
same,IC50,Cowpox virus,6100 nM
same,IC50,Ectromelia virus,6900 nM
CC1(C)[C@@H]2CC=C(CCNC(=O)C34CC5CC(CC(C5)C3)C4)[C@H]1C2,IC50,Vaccinia virus [2],1800 nM
same,IC50,Cowpox virus,4100 nM
same,IC50,Ectromelia virus,1600 nM
CC1(C)[C@@H]2CC[C@@]1(C)[C@H](NC(=O)c1ccc(Cl)cc1)C2,IC50,Vaccinia virus [2],600 nM
same,IC50,Cowpox virus,9200 nM
same,IC50,Ectromelia virus,3300 nM
CCCCCCCCCCCC[N+]12CC[N+](CC#CC[N+]34CC[N+](CCCCCCCCCCCC)(CC3)CC4)(CC1)CC2,EC50,Vaccinia virus [4],100000 nM
O=C1N(Nc2ccc(Cl)cc2)C(=O)C23C4C=CC5C4C4C(C=CC42)C153,CC50,HEL,> 100000 nM
same,IC50,Vaccinia virus [3],8300 nM
O=C(Nc1cccc(C(F)(F)F)c1)C(=O)NN1C(=O)C2C3C=CC(C4CC34)C2C1=O (stereo not drawn),IC50,Vaccinia virus [2],1.3 µg/mL
CC(=O)C1=C2C=CCCN2C(=O)NC1c1ccccc1 (stereo not drawn),IC50,Vaccinia virus [1],5900 nM
Cc1cccc(C)c1NC(=O)C(=O)NN1C(=O)C2C3C=CC(C4CC34)C2C1=O (stereo not drawn),IC50,Vaccinia virus [2],1.28 µg/mL
CC1(C)[C@@H]2CC=C(CNC(=O)C34CC5CC(CC(C5)C3)C4)[C@H]1C2,IC50,Vaccinia virus [2],1700 nM
same,IC50,Cowpox virus,4700 nM
same,IC50,Ectromelia virus,2700 nM
CC1(C)[C@@H]2CC[C@@]1(C)[C@@H](NC(=O)c1ccc(Cl)cc1)C2,IC50,Vaccinia virus [2],240 nM
same,IC50,Cowpox virus,2400 nM
same,IC50,Ectromelia virus,600 nM
C#C[C@]1(OC(=O)CCCCCC)CC[C@H]2[C@@H]3CCC4=CC(=O)CC[C@@H]4[C@H]3CC[C@@H]21,EC50,Vaccinia virus [6]; [8],2700 nM
same,EC50,"Vaccinia virus [7]; Orthopoxvirus vaccinia, BSC-1",3900 nM
CC1(C)/C(=N\NC(=O)c2ccc(Cl)cc2)[C@]2(C)CC[C@H]1C2,IC50,Vaccinia virus [2],900 nM
same,IC50,Cowpox virus,4900 nM
same,IC50,Ectromelia virus,8000 nM
CC(=O)C1=C2C=CCCN2C(=O)NC1c1ccccc1Br (stereo not drawn),IC50,Vaccinia virus [1],300 nM
O=C1N(Nc2ccc(Br)c(Cl)c2)C(=O)C23C4C=CC5C4C4C(C=CC42)C153,CC50,HEL,> 100000 nM
same,IC50,Vaccinia virus [3],600 nM
Cc1cc(NN2C(=O)C34C5C=CC6C5C5C3C=CC5C64C2=O)ccc1[N+](=O)[O-],CC50,HEL,> 100000 nM
same,IC50,Vaccinia virus [3],3000 nM
CCCCCCCCCCCCCCCCCCOCCOP1(=O)COCC(Cn2ccc(N)nc2=O)O1 (stereo not drawn),EC50,Vaccinia virus [1],1100 nM
CCCCCCCCCCCCCCCCOCCCOP1(=O)COCC(Cn2ccc(N)nc2=O)O1 (stereo not drawn),EC50,Vaccinia virus [1],3800 nM
O=C1N(Nc2ccc(C(F)(F)F)cc2)C(=O)C23C4C=CC5C4C4C(C=CC42)C153,CC50,HEL,> 100000 nM
same,IC50,Vaccinia virus [3],1200 nM
N=c1ccn2c(n1)O[C@H]1[C@H](O)[C@@H](CO)O[C@H]12 [ANCITABINE],EC50,Vaccinia virus [4],10000 nM
COc1ccc(C[C@H]2NC[C@H](O)[C@H]2OC(C)=O)cc1 [ANISOMYCIN],EC50,Vaccinia virus [4],250 nM
Cc1cc(C2CCCCC2)n(O)c(=O)c1 [CICLOPIROX],EC50,Vaccinia virus [6]; [8],6900 nM
same,EC50,"Vaccinia virus [7]; Orthopoxvirus vaccinia, BSC-1",5800 nM
C[C@@H]1C[C@@H]([C@H](O)CC2CC(=O)NC(=O)C2)C(=O)[C@@H](C)C1 [CYCLOHEXIMIDE],EC50,Vaccinia virus [4],2000 nM
CO[C@H]1C[C@H](O[C@H]2CC[C@]3(C=O)[C@H]4CC[C@]5(C)[C@@H](C6=CC(=O)OC6)CC[C@]5(O)[C@@H]4CC[C@]3(O)C2)O[C@H](C)[C@H]1O [CYMARIN],EC50,Vaccinia virus [4],250 nM
C[C@H]1O[C@@H](O[C@H]2[C@@H](O)C[C@H](O[C@H]3[C@@H](O)C[C@H](O[C@H]4CC[C@@]5(C)[C@H](CC[C@@H]6[C@@H]5C[C@@H](O)[C@]5(C)[C@@H](C7=CC(=O)OC7)CC[C@]65O)C4)O[C@@H]3C)O[C@@H]2C)C[C@H](O)[C@@H]1O [DIGOXIN],EC50,Vaccinia virus [4],250 nM
CC[C@H]1CN2CCc3cc(OC)c(OC)cc3[C@@H]2C[C@@H]1C[C@H]1NCCc2cc(OC)c(OC)cc21 [EMETINE],EC50,Vaccinia virus [4],250 nM
CC(=O)O[C@H]1C[C@H](O[C@H]2[C@@H](O)C[C@H](O[C@H]3[C@@H](O)C[C@H](O[C@H]4CC[C@@]5(C)[C@H](CC[C@@H]6[C@@H]5C[C@@H](O)[C@]5(C)[C@@H](C7=CC(=O)OC7)CC[C@]65O)C4)O[C@@H]3C)O[C@@H]2C)O[C@H](C)[C@H]1O[C@@H]1O[C@H](CO)[C@@H](O)[C@H](O)[C@H]1O [LANATOSIDE C],EC50,Vaccinia virus [4],500 nM
COC(=O)Nc1nc2cc(C(=O)c3ccccc3)ccc2[nH]1 [MEBENDAZOLE],EC50,Vaccinia virus [6]; [8],9200 nM
same,EC50,"Vaccinia virus [7]; Orthopoxvirus vaccinia, BSC-1",5600 nM
CN(Cc1cnc2nc(N)nc(N)c2n1)c1ccc(C(=O)N[C@@H](CCC(=O)O)C(=O)O)cc1 [METHOTREXATE],EC50,Vaccinia virus [6]; [8],6100 nM
same,EC50,"Vaccinia virus [7]; Orthopoxvirus vaccinia, BSC-1",2200 nM
COc1c(C)c2c(c(O)c1C/C=C(\C)CCC(=O)OCCN1CCOCC1)C(=O)OC2 [MYCOPHENOLATE MOFETIL],EC50,Vaccinia virus [6]; [8],100 nM
same,EC50,"Vaccinia virus [7]; Orthopoxvirus vaccinia, BSC-1",200 nM
COc1c(C)c2c(c(O)c1C/C=C(\C)CCC(=O)O)C(=O)OC2 [MYCOPHENOLIC ACID],EC50,Vaccinia virus [4],1000 nM
CO[C@H]1[C@H](O)[C@H](O[C@H]2CC[C@@]3(C)[C@H](CC[C@@H]4[C@@H]3CC[C@]3(C)[C@@H](C5=CC(=O)OC5)CC[C@]43O)C2)O[C@@H](C)[C@@H]1O [NERIIFOLIN],EC50,Vaccinia virus [4],5000 nM
C[C@@H]1O[C@@H](O[C@H]2C[C@@H](O)[C@]3(CO)[C@H]4[C@H](O)C[C@]5(C)[C@@H](C6=CC(=O)OC6)CC[C@]5(O)[C@@H]4CC[C@]3(O)C2)[C@H](O)[C@H](O)[C@H]1O [OUABAIN],EC50,Vaccinia virus [4],250 nM
N#CC1(c2ccc(NC(=O)c3cccnc3NCc3ccncc3)cc2)CCCC1 [RIVOCERANIB],EC50,Vaccinia virus [6]; [8],2700 nM
same,EC50,"Vaccinia virus [7]; Orthopoxvirus vaccinia, BSC-1",2500 nM
COc1ccc(/C=C/C(=O)Nc2ccccc2C(=O)O)cc1OC [TRANILAST],EC50,Vaccinia virus [6]; [8],800 nM
same,EC50,"Vaccinia virus [7]; Orthopoxvirus vaccinia, BSC-1",900 nM
CCOC(=O)c1c(CSc2ccccc2)n(C)c2cc(Br)c(O)c(CN(C)C)c12 [UMIFENOVIR],EC50,Vaccinia virus [6]; [8],9700 nM
same,EC50,"Vaccinia virus [7]; Orthopoxvirus vaccinia, BSC-1",6600 nM
RAUWOLFIA SERPENTINA,EC50,Vaccinia virus [6]; bsc-1,9800 nM
same,EC50,Vaccinia virus [7]; bsc-1,9200 nM
